How the values were obtained:
[1] = system: PHFK cells; assay: TEER barrier function of IL-4/13-treated PHFK exposed to P6; assay type: cell-based, human; settings: PHFK in IL-4 and IL-13 for two days; 50 or 100 nM; versus DMSO control
Protocol: TEER was taken daily. Data was normalized to Th2 treated samples (n=5-7 donors for TEER (SEM)). Significance was tested versus a DMSO control.

[2] = system: vaccinia virus; assay: Vaccinia virus plaque formation in IL-4/13-treated PHFK exposed to P6; assay type: cell-based; settings: PHFK in IL-4 and IL-13; 50 or 200 nM; 200 pfu VV; three days post infection; n=7 donors
[3] = system: PHFK cells; assay: Cell viability of differentiated PHFK by LDH and WST-1 assay; settings: PHFK differentiated 2 days; 24 hours
Protocol: Briefly, PHFK cells were differentiated for 2 days in the same manner described above. […] Cell viability was measured by LDH and WST-1 assay 24 hours later.

Compound: CC(C)(C)c1nc2c3cc[nH]c(=O)c3c3cc(F)ccc3c2[nH]1 [P6, Pyridone 6]
- barrier function (TEER normalized to Th2 treated samples) [1]: improved barrier function in keratinocytes in a dose dependent manner
- keratinocyte susceptibility to viral infection (plaque number normalized to IL-4/13 treated controls) [2]: reversed keratinocyte susceptibility to viral infection in a dose dependent manner
- concentration not toxic to keratinocytes (LDH and WST-1) [3]: ≥ 1 µM

— patent US12239705B2, “Therapeutic mitigation of epithelial infection” (priority 2018, dated 2025)
